{"source": "patent US20260347380A1", "about": "“MODULATORS OF CD1 PROTEIN BINDING TO T CELL RECEPTORS” (The Brigham and Women's Hospital, Inc., priority 2022, published 2026)", "key": {"CD1a": {"target": "CD1a (Homo sapiens, UniProt P06126)", "sequence (P06126 17-327)": "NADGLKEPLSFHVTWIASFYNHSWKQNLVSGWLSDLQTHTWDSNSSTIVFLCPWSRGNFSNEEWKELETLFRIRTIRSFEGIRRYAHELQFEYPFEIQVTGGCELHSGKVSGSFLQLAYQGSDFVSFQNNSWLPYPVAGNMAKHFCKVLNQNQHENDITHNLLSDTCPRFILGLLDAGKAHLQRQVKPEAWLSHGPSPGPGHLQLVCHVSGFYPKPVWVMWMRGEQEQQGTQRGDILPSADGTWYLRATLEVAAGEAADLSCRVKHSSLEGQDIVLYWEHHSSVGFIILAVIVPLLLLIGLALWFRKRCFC", "sequence (P61769 21-119 partner)": "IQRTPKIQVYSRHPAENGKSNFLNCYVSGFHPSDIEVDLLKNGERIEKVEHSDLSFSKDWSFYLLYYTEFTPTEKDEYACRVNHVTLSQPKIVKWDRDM", "assay": "structure of CD1a-lipid complexes (FIG. 3, FIG. 4; co-crystallization)", "conditions": "for binding mode to CD1a and effect on approach of T cell receptors: sphingomyelins, FIG. 3", "source_text": "Sulfatide sits similarly within CD1a as compared to other lipids, but the sulfatide headgroup alters the protein surface of CD1a and protrudes to the outer surface of CD1a where it can block T cell receptors.\nSulfatides (compounds S1-S10) have the same kinds of CD1a binding lipid tails as the synthetic sphingomyelins, but carry a differing headgroup comprised of sulfate and carbohydrate rather than phosphocholine. […] However, the head group of sulfatide has two proposed mechanisms for blocking TCR contact. […] However, the sulfatide moiety also disrupts a triad of residues on the outer surface of CD1a, which changes the intrinsic conformation of CD1a at the site at which the TCR can bind. These structural data predict that sulfatides could be particularly broad and efficacious blockers of T cell response."}, "CD1a-T cell receptor": {"test_system": "CD1a-T cell receptor", "conditions": "CD1a tetramer binding in vitro, J. Exp. Med. 2021, cited from earlier work"}, "[1]": {"target": "CD1a protein binding to RCS36 T cells (Homo sapiens, UniProt P06126)", "sequence (P06126 17-327)": "as the sequence (P06126 17-327) above", "sequence (P61769 21-119 partner)": "as the sequence (P61769 21-119 partner) above", "assay": "CD1a tetramer staining of human CD1a autoreactive T cells (block of CD1a protein binding to T cells), flow cytometry, FIG. 5", "conditions": "in vitro, human CD1a tetramers", "method": "Exemplified sphingomyelins block CD1a protein binding to RCS36 T cells. Fluorescent human CD1a tetramers were treated with media (mock) or a sphingomyelin variant synthesized with the indicated fatty chain and tested for staining of human CD1a autoreactive T cells using flow cytometry. In all cases the fatty acyl group is conjugated to a C18:1 sphingosine unit. Thus, the C28:1 fatty acyl group and the C18:1 sphingosine group constitute C46:2 sphingomyelin (compound 10).\nGenerally, naturally occurring cellular sphingomyelins within mammalian cells occur as mixtures, and they are most commonly C34-C36 but can range up to C42 in length.\nThe degree of inhibition for CD1a protein binding to T cells expressing receptors that normally bind to CD1a was tested for the exemplified compounds 1-10 (see FIG. 5). Increased chain length contributed to blockade in all cases, and the non-natural positioning of the second unsaturation in the fatty acyl unit affected blockade. More blockade was seen when the unsaturation was generated in positions more distal to the head group located at positions 15-17 (Δ15, Δ17). […] Accordingly, additional SM blockers include those with increased length of alkyl chains beyond C46, where the unsaturation is moved to more […] positions in the fatty acyl chain and the number of unsaturations in the fatty acid chain is increased. […]"}, "[2]": {"test_system": "ears of hCD1a and WT mice", "assay": "MC903-induced type 2 skin inflammation and itch in hCD1a mice (FIG. 11)", "assay_type": "in vivo, mouse", "method": "FIG. 11 show the impact of sphingomyelin application on MC903 type 2 inflammation and clinical itch. The ears of hCD1a and WT mice were topically treated with 1 nmol MC903/EtOH on days 0, 2 and 5. 20 μg/20 μl of SM 46:2, SM 42:2, SM 34:1 and vehicle were applied on the ear tissue on days-2, 0, 2 and 4. (A) Ear thickness, and (B) itching frequency were evaluated at endpoint of day 6. Each data plot represents an individual ear. Plots show mean±SEM. Statistics were calculated using one-way ANOVA with Tukey post-test. […], **** P<0.001, NS=nonsignificant.\nIn order to investigate whether SM had efficacy in a different inflammatory skin model, we utilized the MC903-induced model of type 2 cytokine inflammation which has features of dermatitis in humans and prominently causes itch, a major treatable skin symptom. The MC903-induced type 2 inflammation is amplified in the presence of hCD1a (Hardman et al Nat Comms 2022). […] These mice normally express CD1d and then were engineered to express CD1a. […] As well as having potential therapeutic applications in diseases involving type 2 inflammation in humans, the data support utility in treating broader diseases where pruritus and itch are symptoms. CD1a has not been previously linked with pruritus and so this represents a new area of biology and opens new areas for therapeutic application."}, "plasma cytokines": {"test_system": "plasma cytokines", "assay": "plasma cytokine levels of imiquimod-treated mice, cytometric bead array (FIG. 10)", "assay_type": "in vivo, mouse", "method": "(§1) Sphingomyelin species C34:1, C42:2 or C46:2 (20 μg/20 μl ethanol), or vehicle alone (20 μl ethanol) were applied topically to WT or CD1a transgenic mouse ear skin at 48 hour intervals before and during application of Aldara on days 0-5 (20 mg 5% imiquimod cream).\n(§2) Plasma cytokine levels of the blood of imiquimod-treated wild-type (WT) and CD1a transgenic mice (CD1a) treated topically with 20 μg sphingomyelin (SM34:1, SM42:2 or SM46:2) dissolved in ethanol, or ethanol alone control, as in FIG. 6, as measured by cytometric bead array. (N=2-3, 1-way-ANOVA with Dunnett's test, *, P<0.05; **, P<0.01, mean±SD)."}, "[3]": {"test_system": "Skin T cell and draining lymph node T cell", "assay": "flow cytometry of ear skin and draining lymph node of imiquimod-treated mice (FIG. 9A)", "assay_type": "in vivo, mouse", "method": "as §1\nFlow cytometry analysis of ear skin of imiquimod-treated wild-type (WT) and CD1a transgenic mice (CD1a) treated topically with 20 μg sphingomyelin (SM34:1, SM42:2 or SM46:2) dissolved in ethanol, or ethanol alone control, as in FIG. 6. Skin T cell and draining lymph node T cell, frequency was determined. And lymph node CD4 and CD8 T cells assessed for cell surface CD69 expression, which is an indication of T cell activation. Skin and draining LN eosinophil and neutrophil frequency was determined. (N=2-3, 1-way-ANOVA with Dunnett's test, *, P<0.05; **, P<0.01; ***, P<0.001; ****, P<0.0001, mean±SD)."}, "[4]": {"test_system": "human CD1a transgenic mouse ear skin", "assay": "imiquimod (Aldara)-induced psoriasiform skin inflammation in CD1a transgenic mice: ear swelling and skin images", "assay_type": "in vivo", "conditions": "for inflammatory lesions / visible skin inflammation: images day 7, topical 20 μg in ethanol", "method": "as §1\nDaily measurement of ear swelling induced by imiquimod treatment of wild-type (WT) and CD1a transgenic mice (CD1a) treated topically with 20 μg sphingomyelin (SM34:1, SM42:2 or SM46:2) dissolved in ethanol, or ethanol alone control, as in FIG. 6. (N=2-3, 2-way-ANOVA with Dunnett's test, *, P<0.05; ****, P<0.0001 indicates significance on comparison to “CD1a:EtOH” at day 7, mean±SD).\nRepresentative images of imiquimod-treated wild-type (WT) and CD1a transgenic mouse ear skin (CD1a) treated topically with 20 μg sphingomyelin (SM34:1, SM42:2 or SM46:2) dissolved in ethanol, or ethanol alone control, as in FIG. 6, images taken on day 7. Steroid is mometasone cream.\nCD1a is normally expressed on Langerhans cells in the epidermal layer of human skin. […] The lipids of this disclosure block CD1a binding to several T cell clones in vitro and also more broadly block the response of larger populations of polyclonal T cells that recognize CD1a in vivo, leading to decreased inflammation in the skin.\nSynthetic long (C46:2 SMΔ17, compound 10), intermediate (C42:2Δ15 SM) and short chain (C34:1 SM) sphingomyelins were compared for inflammatory response. Unlike natural preparations that contain mixtures of short and long chain lipids, these experiments used pure synthetic lipids to titrate CD1a binding and inhibition of immune response. The functional requirements for the delivery vehicle are that it must: 1) dissolve amphipathic lipids, 2) be safe, immunologically unreactive, and non-toxic to skin and 3) create a lipid film that can subsequently penetrate to the epidermal layers, where CD1a is normally located in human skin and in the skin of CD1a transgenic mice. In this experiment, ethanol was chosen which is a chemically simple, safe and effective vehicle; however, other vehicles can also be used.\nA widely used model of psoriasiform and dermatitic inflammation induced by Aldara cream, whose active ingredient is a toll-like receptor 7 agonist (imiquimod), was used in this example. Experiments were carried out in which lipid antagonists were applied to the skin of human CD1a transgenic mice in an ethanol carrier, which dried rapidly, leaving a lipid film on the skin. A significant reduction in ear swelling was observed, as a global measure of inflammation and psoriasiform and dermatitic disease when long chain sphingomyelins were applied before (data not shown) or simultaneously with Aldara treatment (FIGS. 7-11)."}, "skin cytokines": {"test_system": "skin cytokines", "assay": "skin cytokine levels of imiquimod-treated mice, cytometric bead array (FIG. 9B)", "assay_type": "in vivo, mouse", "conditions": "day 7", "method": "as §1\nas §2, with “Skin” for “Plasma”, “were assessed on day 7” for “of the blood”, “P<0.01; ***, P<0.001; ****, P<0.0001,” for “P<0.01,”"}, "[5]": {"conditions": "MC903, hCD1a mice, day 6, 20 μg topical"}}, "note": "Entries after “also recorded” stand apart in the source; their conditions may differ. Where two headings read alike, the source gives them in different places."}
{"compound": "CCCCCCCC/C=C\\CCCCCCCC(=O)N[C@@H](COP(=O)([O-])OCC[N+](C)(C)C)[C@H](O)/C=C/CCCCCCCCCCCCC", "note": "[36:2 SM]", "values": [{"measurement": "binding mode to CD1a and effect on approach of T cell receptors", "setting": "CD1a", "value": "binds by tucking its phosphocholine group largely inside CD1a so T cell receptors can approach CD1a and are not blocked"}, {"measurement": "CD1a-T cell receptor binding", "setting": "CD1a-T cell receptor", "value": "did not block binding"}]}
{"compound": "CCCCCCCC/C=C\\CCCCCCCCCCCCCC(=O)N[C@@H](COP(=O)([O-])OCC[N+](C)(C)C)[C@H](O)/C=C/CCCCCCCCCCCCC", "note": "[42:2 SM]", "values": [{"measurement": "binding mode to CD1a and effect on approach of T cell receptors", "setting": "CD1a", "value": "binds CD1a with its phosphocholine headgroup protruding, which blocks approach of T cell receptors"}, {"measurement": "CD1a-T cell receptor binding", "setting": "CD1a-T cell receptor", "value": "blocked CD1a-T cell receptor binding"}, {"measurement": "CD1a-T cell receptor binding", "setting": "CD1a-T cell receptor; listed as C42:2 compound", "value": "blocked better than the singly unsaturated C42:1 compound"}]}
{"compound": "CCCCCCCCCC/C=C\\CCCCCCCCCCCCCC(=O)N[C@@H](COP(=O)([O-])OCC[N+](C)(C)C)[C@H](O)/C=C/CCCCCCCCCCCCC", "note": "[Compound 8, 44:2 SM d18:1/26:1 (15Z)]", "values": [{"measurement": "inhibition of CD1a protein binding to T cells", "setting": "[1]", "value": "somewhat improved blocking of C44Δ15 SM as compared to C44Δ17 SM"}]}
{"compound": "CCCCCCCCCC/C=C\\CCCCCCCCCCCCCCCC(=O)N[C@@H](COP(=O)([O-])OCC[N+](C)(C)C)[C@H](O)/C=C/CCCCCCCCCCCCC", "note": "[Compound 10, 46:2 SM d18:1/28:1 (17Z)]", "values": [{"measurement": "ear thickness vs wild-type mice treated with MC903", "setting": "[2]; MC903, day 6, 20 μg topical", "value": "significantly reduced"}, {"measurement": "pruritus vs wild-type mice treated with MC903", "setting": "[2]; MC903, day 6, 20 μg topical", "value": "significantly reduced"}, {"measurement": "ear thickness vs vehicle control", "setting": "[2]; [5]", "value": "significantly reduced"}, {"measurement": "itching/pruritus scores vs vehicle control", "setting": "[2]; [5]", "value": "significantly reduced"}, {"measurement": "plasma IFNβ", "setting": "plasma cytokines", "value": "significantly reduced"}, {"measurement": "plasma IL17α", "setting": "plasma cytokines", "value": "significantly reduced"}, {"measurement": "plasma IL-4", "setting": "plasma cytokines", "value": "significantly reduced"}, {"measurement": "cellular inflammation", "setting": "[3]; CD1a transgenic mice, topical in ethanol", "value": "reduced skin swelling and cellular inflammation in vivo"}, {"measurement": "CD69 (surface marker of T cell activation)", "setting": "[3]; lymph node CD4 and CD8 T cells", "value": "significant decreases"}, {"measurement": "ear swelling / ear thickening", "setting": "[4]; imiquimod, CD1a transgenic mice, topical 20 μg in ethanol", "value": "reduced skin swelling; also recorded: most significantly inhibited"}, {"measurement": "inflammatory lesions / visible skin inflammation", "setting": "[4]; imiquimod", "value": "most significantly inhibited"}, {"measurement": "inflammatory lesions / visible skin inflammation", "setting": "[4]; imiquimod, listed as C46:2", "value": "significantly reduced skin inflammation"}, {"measurement": "inflammatory lesions / visible skin inflammation", "setting": "[4]; imiquimod, listed as C46:2 SM", "value": "Reduced inflammatory lesions"}, {"measurement": "protection from disease", "setting": "[4]; in vivo mouse model, ethanol application", "value": "protection from disease"}, {"measurement": "inhibition of CD1a protein binding to T cells", "setting": "[1]", "value": "strongest blockade; also recorded: strongly blocked CD1a binding to human T cell receptors in vitro"}, {"measurement": "skin IFN-γ", "setting": "skin cytokines", "value": "significant decreases"}, {"measurement": "skin IL1α", "setting": "skin cytokines", "value": "significant decreases"}, {"measurement": "skin IL17α", "setting": "skin cytokines", "value": "significant decreases"}, {"measurement": "skin IL-1β", "setting": "skin cytokines", "value": "significant decreases"}, {"measurement": "skin IL-6", "setting": "skin cytokines", "value": "significant decreases"}, {"measurement": "skin IL-17f", "setting": "skin cytokines", "value": "significant decreases"}, {"measurement": "skin IL-22", "setting": "skin cytokines", "value": "significant decreases"}, {"measurement": "skin TNFα", "setting": "skin cytokines", "value": "significant decreases"}]}
{"compound": "sulfatide", "values": [{"measurement": "complex with CD1a", "setting": "CD1a; sulfatide, co-crystallized, FIG. 4", "value": "CD1a was co-crystallized with sulfatide; also recorded: forms complex with CD1a"}]}
